The assay addresses Programmed cell death protein 1/Programmed cell death 1 ligand 1 (Homo sapiens, UniProt Q15116+Q9NZQ7). The assay can be described thus: In Vitro Activity Assay: 1) Principle: PD-1 protein is with HIS tag, and PD-1 ligand PD-L1 is with hFc tag. Eu labeled anti-hFc antibody and XL665 labeled anti-HIS antibody are combined with the above two label proteins respectively. After laser excitation, energy can be transferred from donor Eu to receptor XL665, allowing XL665 to glow. […] Reagents should be dispensed in the following order. For 384-well white ELISA plate, 2 μl of diluent or target compound diluted with diluent was added to each well, and then 4 μl of PD-1 protein and 4 μl of PD-L1 protein were added per well, incubated for 15 min at room temperature; and 10 μl of a mixture of anti-Tag1-Eu3+ and anti-Tag2-XL665 was added per well and incubated for 1 h to 4 h at room temperature and the fluorescence signals at 665 nm and 620 nm were measured with an Envison instrument. HTRF rate=(665 nm/620 nm)[…]. 8-10 concentrations were detected for each compound and IC50 was calculated by Graphpad software. Type of assay: protein-complex assay.

SMILES strings stand for the structures.

Programmed cell death protein 1/Programmed cell death 1 ligand 1, sequence (Q15116 whole entry): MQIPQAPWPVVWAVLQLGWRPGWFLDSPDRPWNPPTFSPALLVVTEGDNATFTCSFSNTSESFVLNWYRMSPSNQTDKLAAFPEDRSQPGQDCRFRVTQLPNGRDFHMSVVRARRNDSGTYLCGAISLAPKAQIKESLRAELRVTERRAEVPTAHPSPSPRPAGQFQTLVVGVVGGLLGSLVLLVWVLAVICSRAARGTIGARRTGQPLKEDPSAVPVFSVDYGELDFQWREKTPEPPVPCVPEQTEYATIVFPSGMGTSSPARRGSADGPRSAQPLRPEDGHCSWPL
Programmed cell death protein 1/Programmed cell death 1 ligand 1, sequence (Q9NZQ7 whole entry): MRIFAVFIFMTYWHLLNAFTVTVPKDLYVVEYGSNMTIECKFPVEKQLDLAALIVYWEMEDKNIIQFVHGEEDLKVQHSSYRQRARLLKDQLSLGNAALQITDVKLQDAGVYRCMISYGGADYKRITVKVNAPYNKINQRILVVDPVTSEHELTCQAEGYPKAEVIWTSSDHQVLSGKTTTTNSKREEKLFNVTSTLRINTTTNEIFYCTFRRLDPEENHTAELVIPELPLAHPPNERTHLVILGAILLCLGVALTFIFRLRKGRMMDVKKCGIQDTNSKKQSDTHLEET

On to `N#Cc1cccc(COc2cc(OCc3cccc(-c4ccccc4)c3Br)c(Cl)cc2CNCCO)c1`, for which the IC50 was 5.29 nM.

As for `CS(=O)(=O)NCCNCc1ccc(OCc2cccc(-c3ccccc3)c2Br)cc1OCc1cccc(C#N)c1`, the half-maximal inhibitory concentration (IC50) is 979 nM.

On to `N#Cc1cccc(COc2cc(OCc3cccc(-c4ccccc4)c3Br)ccc2CN2CCOCC2)c1`, for which the IC50 is 458 nM.

Source of the values: ChEMBL document CHEMBL5728311, “Benzyl phenyl ether derivative, preparation method therefor, and pharmaceutical composition and uses thereof” (2021).
